Source: ChEMBL document CHEMBL3430912, “GSK Tres Cantos Anti-Kinetoplastid Screening (TCAKS) Data”
pIC50: −log10 of the molar value.

Columns and labels:
Leishmania donovani [1] = assay: GSK_TCAKS: pIC50 Leishmania donovani Imaging: Infected Macrophages. Assay plates (384-well) were prepared by adding 250nL of compound to each well. For single shot assay, the final compound concentration was 5 uM. […] Automated image analysis was performed with a script developed on Acapella High Content Imaging and Analysis Software (PerkinElmer). Output: Percent of infected macrophage cells were reported for each well.; format: functional, organism-based, Homo sapiens; details: THP-1
Trypanosoma cruzi [2] = assay: (§1) GSK_TCAKS: pIC50 H2C9 Imaging: H9c2 Host Cardiomyocytes. […] Cells were then washed once with PBS before infection. T. cruzi trypomastigotes, collected at days 5 to 8 after infection from LLC-MK2 parasite infected cultures, were allowed to swim out for 4h at 37C from a centrifuged pellet (2,500 rpm/10 min/room temperature). Trypomastigotes were then collected and counted in a CASY Cell Counter. Trypomastigotes, in supplemented DMEM, were added to H9c2 cultures in a multiplicity of infection of 1 and incubated for 18 h. Cells were washed once with PBS before incubation of the infected H9c2 monolayer with trypsin (Life-Technologies) to detach cells from the flask. Cells were counted in a CASY Cell Counter using a 150 um capillary and their density set at 5 * 10^4 cells per mL in supplemented assay DMEM. Infected H9c2 were dispensed into 384-well poly-lysine coated assay plates at 50uL per well using a Multidrop Combi dispenser. After seeding them, the plates were incubated at 37C, 5% CO2 for 72h. Cultures were then fixed and stained by addition of 50 uL of a solution containing 8% formaldehyde and 4 uM DRAQ5 DNA dye (BioStatus, UK) per well. […] Five images were collected per well for reliable statistical analysis. Automated image analysis was performed with a script developed on Acapella High Content Imaging and Analysis Software (PerkinElmer). Output: Number of H9c2 Host Cardiomyocytes nuclei to determine drug-related cytotoxicity.; format: functional, organism-based, Rattus norvegicus; details: H9c2, 4 h
[3] = system: Trypanosoma brucei brucei; assay: GSK_TCAKS: pIC50 Trypanosoma brucei viability assay using luminiscence. Assay plates (1536-well) were prepared. T. brucei cultures were harvested and counted in a CASY cell counter. A parasite suspension was prepared at a final concentration of 5 * 10^4 cells/mL in complete HMI9 medium and 6uL was dispensed to all wells containing compounds using a Multidrop Combi dispenser. 6uL of HMI9 media with 0.4% DMSO were dispensed to control columns. Plates were incubated for 24 h at 37C, 5% CO2 then tempered for 10 min at room temperature. ATP content was quantified by adding 4 uL of CellTiter-Glo Reagent (Promega) according to the manufacturer's instructions. Luminescence was measured using a ViewLux.; format: functional, organism-based; details: Lister 427, CASY
Trypanosoma cruzi [4] = assay: as §1, with “Trypanosoma cruzi” for “H2C9”, “Infected Cells.” for “H9c2 Host Cardiomyocytes.”, “percentage” for “Number”, “infected cells per well as a second infection marker.” for “H9c2 Host Cardiomyocytes nuclei to determine drug-related cytotoxicity.”; format: functional, organism-based, Rattus norvegicus; details: H9c2, 4 h
Leishmania donovani [5] = assay: GSK_TCAKS: pIC50 Leishmania donovani viability assay using fluorescence intensity. Assay plates (1536-well) were prepared by adding 30nL per well of compound. For single shot assay, the final compound concentration was 5uM. […] Briefly, eGFP LdBOB axenic amastigotes were harvested, fixed and counted in a CASY cell counter (Roche-Applied Science). A final concentration of 1.5 * 10^5 cells per well were prepared in amastigote media containing 500 U/mL penicillin/streptomycin (Invitrogen) and 6uL was dispensed to each experimental well using a Multidrop Combi dispenser (Thermo Scientific). 6uL of assay media was dispensed to control columns used as reference for 100% compound response. Following incubation for 72 h at 37C, 5% CO2, 2 uL of resazurin was added to each well at a final concentration of 0.5 mM in phosphate buffered saline (PBS) with IGEPAL (Sigma-Aldrich), 0.05% (v/v).; format: functional, organism-based
Trypanosoma cruzi [6] = assay: GSK_TCAKS: pIC50 Trypanosoma cruzi viability assay using beta-GAL activity. This assay was run at single shot at 5uM compound concentration per well. The biological reagents consisted of NIH-3T3 host cells and trypomastigotes parasitic cells; both cell types were set to a 3.3 * 10^5 cells/mL dilution in assay DMEM by means of a CASY cell counter device using a 60um capillary. 6 uL of the mixture were dispensed per well (about 1 * 10^3 host-cells and 1 * 10^3 parasites) with a Multidrop Combi dispenser. […] In all wells, the percentage of DMSO never exceeded 0.5%. Plates incubated for four days at 37C, 5% CO2. The substrate used for the assay fluorescence intensity (FLINT) readout was resorufin-beta-D-galactopiranoside (Sigma-Aldrich) at 5uM per well. It was diluted in PBS supplemented with the soft detergent Igepal (Fluka).; format: functional, organism-based, Mus musculus; details: Tulahuen, NIH3T3
Leishmania donovani [7] = assay: GSK_TCAKS: pIC50 Leishmania donovani Imaging: THP-1 Host Macrophages. Assay plates (384-well) were prepared by adding 250nL of compound to each well. For single shot assay, the final compound concentration was 5 uM. […] Automated image analysis was performed with a script developed on Acapella High Content Imaging and Analysis Software (PerkinElmer). Output: THP-1 cell count were reported for each well.; format: functional, organism-based, Homo sapiens
[8] = system: Trypanosoma brucei brucei; assay: GSK_TCAKS: pIC50 Trypanosoma brucei viability assay using fluorescence intensity. Assay plates (1536-well) were prepared by dispensing 25nL of compound solution per well using an Echo acoustic dispenser (Labcyte).; format: functional, organism-based; details: Lister 427, 2 h
[9] = GSK_TCAKS: pIC50 HepG2 human cell line viability assay using luminiscence. […] Seeding density was checked to ensure that new mono-layers were not more than 50% confluent at the time of harvesting. Cell suspension was added to 500 mL of the same medium at a final density of 1.2 * 10^5 cells/mL. This cell suspension was dispensed (25 uL, 3000 cells per well) into 384-well clear-bottom plates using a Multidrop Combi dispenser. Prior to addition of the cell suspension, the screening compounds (250 nL) were pre-dispensed into the plates with an Echo liquid handler. Plates were incubated for 48 h at 37C, 5% CO2. After incubation, plates equilibrated at room temperature for 30 min before proceeding to develop the luminescent signal. The signal developer, CellTiter-Glo Reagent, was allowed to equilibrate at room temperature for 30 min and added to the plates (25uL per well) using a Multidrop Combi dispenser. Plates were left for 10 min at room temperature for stabilization and then read using a ViewLux.; format: toxicity, cell-based
Trypanosoma cruzi [10] = assay: as §1, with “Trypanosoma cruzi” for “H2C9”, “Amastigotes/Cell.” for “H9c2 Host Cardiomyocytes.”, “number” for “Number”, “amastigotes per cell as infection level measurement.” for “H9c2 Host Cardiomyocytes nuclei to determine drug-related cytotoxicity.”; format: functional, organism-based, Rattus norvegicus; details: H9c2, 4 h
[11] = target: Sterol 14-alpha demethylase (Trypanosoma cruzi (strain CL Brener), UniProt Q7Z1V1); assay: GSK_TCAKS: pIC50 CYP51 from Trypanosoma cruzi.; format: functional
Leishmania donovani [12] = assay: GSK_TCAKS: pIC50 Leishmania donovani Imaging: Amastigotes/Macrophages. Assay plates (384-well) were prepared by adding 250nL of compound to each well. For single shot assay, the final compound concentration was 5 uM. […] Automated image analysis was performed with a script developed on Acapella High Content Imaging and Analysis Software (PerkinElmer). Output: Average number of amastigotes per macrophage cell were reported for each well.; format: functional, organism-based, Homo sapiens; details: THP-1

Sterol 14-alpha demethylase, sequence (Q7Z1V1 whole entry): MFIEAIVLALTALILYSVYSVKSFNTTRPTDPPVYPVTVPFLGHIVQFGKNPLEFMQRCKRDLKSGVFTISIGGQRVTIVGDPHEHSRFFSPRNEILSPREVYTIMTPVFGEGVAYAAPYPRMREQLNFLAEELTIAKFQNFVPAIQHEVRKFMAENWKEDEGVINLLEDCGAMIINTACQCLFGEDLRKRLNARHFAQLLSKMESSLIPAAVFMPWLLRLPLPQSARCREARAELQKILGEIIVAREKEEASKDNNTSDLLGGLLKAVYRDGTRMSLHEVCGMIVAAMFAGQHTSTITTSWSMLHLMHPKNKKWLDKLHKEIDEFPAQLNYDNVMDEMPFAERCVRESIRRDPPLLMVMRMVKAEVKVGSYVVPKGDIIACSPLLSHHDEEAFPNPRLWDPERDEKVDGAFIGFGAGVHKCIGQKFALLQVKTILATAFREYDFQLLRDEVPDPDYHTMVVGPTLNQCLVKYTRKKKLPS

SMILES	pIC50 (Leishmania donovani [1])	pIC50 (Trypanosoma cruzi [2])	pIC50 [3]	pIC50 (Trypanosoma cruzi [4])	pIC50 (Leishmania donovani [5])	pIC50 (Trypanosoma cruzi [6])	pIC50 (Leishmania donovani [7])	pIC50 [8]	IC50 at 48 h [9]	pIC50 (Trypanosoma cruzi [10])	pIC50 [11]	pIC50 (Leishmania donovani [12])
c1ccc(-c2nc(NCc3ccco3)c3ccccc3n2)nc1	5.60	5.70	5.20	5.50	5.50	5.20	4.50	< 4.40	> 100 µM	5.40	< 4.00	5.60
O=C(NCCc1csc(-c2cccc(F)c2)n1)c1ccco1	< 4.30	5.00	6.20	5.80	< 4.30	5.80	< 4.30	6.30	> 100 µM	5.90	< 4.00	< 4.30
O=C(Nc1ccc(C(F)(F)F)cc1)NC1(C(=O)NCc2ccco2)CCCCC1	< 4.30	< 4.30	6.00	< 4.30	4.40	5.10	4.50	6.10	> 100 µM	< 4.30	< 4.50	< 4.30
CCN(CC)c1nc(Nc2ccncc2)nc2ccccc12	5.20	5.10	5.30	7.10	6.10	6.90	4.60	5.60	50.1 µM	8.30	< 4.00	5.70
COc1ccc(C2CC(c3ccc(NS(C)(=O)=O)cc3)=NN2C(=O)c2cccs2)cc1OC (configuration not stated)	5.30	< 4.30	4.60	4.50	4.90	4.60	< 4.30	4.80	> 100 µM	4.80	4.90	5.40
COc1ccccc1C1CC(c2ccc(NS(C)(=O)=O)cc2)=NN1C(=O)c1cccs1 (configuration not stated)	5.40	< 4.30	4.70	< 4.30	5.40	4.60	< 4.30	4.80	> 100 µM	< 4.30	4.60	5.60
CCS(=O)(=O)Nc1ccc(C2=NN(C(=O)c3cccs3)C(c3ccccc3OC)C2)cc1 (configuration not stated)	5.10	< 4.30	4.80	< 4.30	5.90	5.10	< 4.30	5.30	> 100 µM	< 4.30	4.60	5.10
CCOc1ccc(CN(C)Cc2nc(Nc3ccc(C)cc3)[nH]c(=N)n2)cc1	5.40	5.50	5.70	5.30	4.50	5.20	4.40	5.60	31.6 µM	5.30	4.80	5.50
CCC(CC)C(=O)Nc1cccc(C(=O)Nc2nnc(C3CCCCC3)s2)c1	< 4.30	< 4.30	6.20	4.60	< 4.30	5.00	< 4.30	6.60	> 100 µM	4.80	< 4.00	< 4.30
CCN(CC)c1nc(N(C)C)nc2c1CN(Cc1ccccc1)CC2	5.20	< 4.30	4.70	4.70	5.10	5.20	4.40	4.70	63.1 µM	5.40	5.00	5.40
Cc1[nH]nc(C(F)(F)F)c1NC(=O)CCn1cc(Cl)c([N+](=O)[O-])n1	< 4.30	< 4.30	6.10	4.60	< 4.30	5.10	4.80	6.30	> 100 µM	5.20	< 4.00	< 4.30
